Data: patent US4661516A, “Diaminocyclohexane platinum complexes” (Research Corporation, priority 1984, dated 1987)
Like-named read-outs stand apart in the source and are kept apart here.

Assays:
[1] = Acute lethality, single intraperitoneal injection (Table XIII); assay type: in vivo
[2] = BUN (RUN [sic]) with the acute lethality data (Table XIII); assay type: in vivo; details: mean + 1 S.D.
[3] = tested on: L1210 leukemia cells (L1210/PDD); assay: In vitro cytotoxicity / cross-resistance, L1210/PDD (L1210/DDP) cells resistant to cisdiamminedichloroplatinum(II); assay type: cell-based; details: for ID50 L1210/PDD: 96 hours; for ID50 L1210/DDP: Tables VII and VIII, 5760 min
Method: Four ml of cell suspension were added to culture tubes and the appropriate concentration (0.01, 0.1, 1 or 10 μg/ml final drug concentration) was added. After 96 hours the cell concentration of control and experimental cultures were calculated with the aid of a Coulter Counter® Model ZBf and the percent inhibition calculated.

[4] = tested on: Wild type L1210 leukemic cells; assay: In vitro cytotoxicity, wild type L1210 leukemic cells (L1210/0); assay type: cell-based; details: L1210, 72 hours incubation
Method: Four ml of cell suspension (10^5 cells/ml) are added to culture tubes and the appropriate concentration (0.01, 0.1, 1 or 10 μg/ml final concentration) of drug added to the culture tubes. After 72 hours of incubation, the cell concentration of control and experimental cultures are determined with the aid of a Coulter Counter® Model ZBf and the percent inhibition calculated. […]

L1210 cells = assay: In vivo anti-tumor activity, L1210, single i.p. injection; set-up: species or system BDF1 mice; details: for Maximal Effective Dose: single i.p. injection
Method: About 24 hours after inoculation of the cells, the mice were injected intraperitoneally with varying dosages of complexes of the present invention. […] Long term survival signifies that animals were alive 60 days after inoculation with L1210 cells.

Male albino mice = assay: Acute toxicity, single intraperitoneal injection (Example 19); assay type: in vivo; details: single i.p.; for Calculated LD10 / Calculated LD50 / Calculated LD90: 14 days
Method: Fourteen days after treatment all surviving mice were sacrified and the LD10, LD50 and LD90 were calculated.

L1210/0 leukemia cells = assay: In vivo anti-tumor activity, L1210 (L1210/0), multiple i.p. doses; set-up: species or system BDF1 mice; details: for Maximal Effective Dose: i.p. on days 1, 5 and 9
Method: BDF1 mice were inoculated intraperitoneally with 10^6 L1210 cells. About 24 hours after inoculation of the cells, the mice were injected intraperitoneally with varying dosages of complexes of the present invention. Six mice were used for each dosage level in each experiment with an equal number of control mice inoculated with 10^6 L1210 cells and left untreated with a given complex. The results [%T/C=(survival time of treated animals/survival time of control animals)×100] are set forth below. Long term survival signifies that animals were alive 60 days after inoculation with L1210 cells.
The procedure of Example 16 was repeated except that the treated animals were injected with multiple doses of the complex as indicated below:
(§1) The anti-tumor activity of compound number 3 was evaluated against cells sensitive to (L1210/0) and resistant to (L1210/PDD) the standard platinum complex cis-diamminedichloroplatinum(II).
The following complexes were tested in vivo oncolytic activity following 3 i.p. injections (days 1, 5, 9) according to the protocol described in Examples 16 and 17.
BDF1 mice were innoculated intraperitoreally with 10^6 L1210 leukemia cells and treatment was begun on the next day (day 1). Two treatment schedules, i.e. single i.p. injection of the drug and i.p. injections on days 1, 5 and 9 according to the protocol described in Examples 16 and 17 were used.

L1210/PDD = assay type: in vivo, BDF1 mice; details: days 1,5,9
Method: as §1

B16 cells = assay: Melanotic melanoma test, i.p. inoculated B16 melanoma; assay type: in vivo, BDF1 mice
Method: The animals used were BDF1 mice, all of the same sex, weighing a minimum of 18 g. and all within a 4 g. weight range. There were 6 animals per test group. […] The test compounds were administered intraperitoneally on days 1, 5 and 9 at various doses. The animals were weighed and survivors were recorded on a regular basis for 60 days. The median survival time and the ratio of survival time for treated (T)/control (C) animals were calculated. […] The criterion for efficacy is T/C×100≥125%.

[5] = Table IX, single i.p., at maximal effective dose
[6] = Tables X and XI, days 1, 5 and 9, at maximal effective dose, alive 60 days after tumor inoculation
[7] = Tables X and XI, i.p. on days 1, 5 and 9, at maximal effective dose
[8] = Example 18, L1210/0, 25 mg/kg, days 1,5,9
[9] = Example 18, L1210/0, 50 mg/kg, days 1,5,9

Structure (SMILES): O.O.O=C([O-])C[N-]CC(=O)O.[NH-]C1CCCCC1[NH-].[Pt] [Compound 11, iminodiacetato(DACH)Pt(II).2H2 O]
- LD10 [1]: 53 mg/kg
- LD50 [1]: 107 mg/kg
- LD90 [1]: 169 mg/kg
- RUN [2]: 23 ± 4 mg/100 ml
- ID50 L1210/PDD [3]: 1.6 µg/mL
- ID50 [4]: 4.2 µg/mL
- Maximal Effective Dose (L1210 cells; Table IX): 50 mg/kg
- % T/C (L1210 cells; [5]): 163%
- % T/C (L1210 cells; single i.p., 50 mg/kg): 163%
- % T/C (L1210 cells; single i.p., 100 mg/kg): 109%
- toxicity remark (L1210 cells; single i.p., 100 mg/kg): Apparent Toxicity
- DEATHS/TREATED (Male albino mice; 85 mg/kg): 1/6
- DEATHS/TREATED (Male albino mice; 100 mg/kg): 3/6
- DEATHS/TREATED (Male albino mice; 125 mg/kg): 5/6
- DEATHS/TREATED (Male albino mice; 158 mg/kg): 4/6
- DEATHS/TREATED (Male albino mice; 200 mg/kg): 6/6
- Calculated LD10 (Male albino mice): 80 mg/kg
- Calculated LD50 (Male albino mice): 115 mg/kg
- Calculated LD90 (Male albino mice): 155 mg/kg
- % T/C (L1210/0 leukemia cells; 25 mg/kg, days 1,5,9): 199%
- % T/C (L1210/0 leukemia cells; 50 mg/kg, days 1,5,9): 220%
- Long Term Survivors (L1210/0 leukemia cells; 50 mg/kg, days 1,5,9): 2/6
- Long Term Survivors (L1210/0 leukemia cells; [6]): 2/6
- Maximal Effective Dose (L1210/0 leukemia cells; Tables X and XI): 50 mg/kg
- % T/C (L1210/0 leukemia cells; [7]): 220%

Structure (SMILES): NC1CCCCC1N.O.O=C1OC(C(O)CO)C([O-])=C1O.O=C1OC(C(O)CO)C([O-])=C1O.[Pt+2] (stereo not drawn) [Compound 3, cis-bis-ascorbato(DACH)Pt(II).1H2 O]
- % T/C (L1210/PDD; 6.25 mg/kg): 115%
- % T/C (L1210/PDD; 12.5 mg/kg): 124%
- % T/C (L1210/PDD; 25 mg/kg): 135%
- % T/C (L1210/PDD; 50 mg/kg): 223%
- SURVIVORS (L1210/PDD; 50 mg/kg): 3/10
- % T/C (L1210/PDD; 100 mg/kg): 172%
- ID50 L1210/DDP [3]: 5.0 µg/mL
- ID50 L1210/PDD [3]: 2.6 µg/mL
- ID50 [4]: 5.0 µg/mL
- % T/C (L1210 cells; single i.p., 50 mg/kg): 125%
- % T/C (L1210 cells; single i.p., 60 mg/kg): 163%
- % T/C (L1210 cells; single i.p., 75 mg/kg): 143%
- % T/C (L1210 cells; single i.p., 90 mg/kg): 145%
- % T/C (L1210 cells; single i.p., 100 mg/kg): Toxic
- DEATHS/TREATED (Male albino mice; 110 mg/kg): 1/6
- DEATHS/TREATED (Male albino mice; 125 mg/kg): 2/6
- DEATHS/TREATED (Male albino mice; 140 mg/kg): 4/6
- DEATHS/TREATED (Male albino mice; 175 mg/kg): 6/6
- Calculated LD10 (Male albino mice): 108 mg/kg
- Calculated LD50 (Male albino mice): 125 mg/kg
- Calculated LD90 (Male albino mice): 150 mg/kg
- % T/C (L1210/0 leukemia cells; 5 mg/kg, days 1-9): 142%
- % T/C (L1210/0 leukemia cells; 10 mg/kg, days 1,5,9): 123%
- % T/C (L1210/0 leukemia cells; 10 mg/kg, days 1-9): 184%
- % T/C (L1210/0 leukemia cells; 20 mg/kg, days 1,5,9): 196%
- Long Term Survivors (L1210/0 leukemia cells; 20 mg/kg, days 1,5,9): 1/6
- % T/C (L1210/0 leukemia cells; 20 mg/kg, days 1-9): 239%
- Long Term Survivors (L1210/0 leukemia cells; 20 mg/kg, days 1-9): 1/6
- % T/C (L1210/0 leukemia cells; 25 mg/kg, days 1,5,9): 176%
- % T/C (L1210/0 leukemia cells; 30 mg/kg, days 1,5,9): 257%
- Long Term Survivors (L1210/0 leukemia cells; 30 mg/kg, days 1,5,9): 1/6
- % T/C (L1210/0 leukemia cells; 30 mg/kg, days 1,5,9,13): 273%
- Long Term Survivors (L1210/0 leukemia cells; 30 mg/kg, days 1,5,9,13): 1/6
- % T/C (L1210/0 leukemia cells; Example 18, L1210/0, 6.25 mg/kg, days 1,5,9): 117%
- % T/C (L1210/0 leukemia cells; Example 18, L1210/0, 12.5 mg/kg, days 1,5,9): 135%
- % T/C (L1210/0 leukemia cells; [8]): 181%
- SURVIVORS (L1210/0 leukemia cells; [8]): 2/10
- % T/C (L1210/0 leukemia cells; [9]): 247%
- SURVIVORS (L1210/0 leukemia cells; [9]): 1/10
- % T/C (L1210/0 leukemia cells; Example 18, L1210/0, 100 mg/kg, days 1,5,9): 104%

Structure (SMILES): CN(CC(=O)[O-])CC(=O)[O-].NC1CCCCC1N.O.[Pt+2] [Compound 28, N--Methyliminodiacetato(DACH)Pt(II).1H2 O]
- LD10 [1]: 49 mg/kg
- LD50 [1]: 92 mg/kg
- LD90 [1]: 170 mg/kg
- RUN [2]: 22 ± 3 mg/100 ml
- ID50 L1210/DDP [3]: 1.3 µg/mL
- ID50 [4]: 1.6 µg/mL
- Maximal Effective Dose (L1210 cells; Table IX): 25 mg/kg
- % T/C (L1210 cells; [5]): 180%
- % T/C (L1210 cells; single i.p., 12.5 mg/kg): 161%
- % T/C (L1210 cells; single i.p., 25 mg/kg): 185%
- % T/C (L1210 cells; single i.p., 50 mg/kg): Toxic
- Long Term Survivors (L1210/0 leukemia cells; [6]): 5/6
- Maximal Effective Dose (L1210/0 leukemia cells; Tables X and XI): 12.5 mg/kg
- % T/C (L1210/0 leukemia cells; [7]): 550%
- Maximal Effective Dose (B16 cells; B16, i.p. days 1, 5 and 9): 25 mg/kg
- % T/C (B16 cells; B16, i.p. days 1, 5 and 9, at maximal effective dose): 205%
- Long Term Survivors (B16 cells; B16, i.p. days 1, 5 and 9, at maximal effective dose, 60 days): 0/6
